Test system: 327498-153-R-J2-PDC complex spheroid growth, % test/control
Test: Anticancer human tumor 327498-153-R-J2-PDC patient-derived uterine carcinosarcoma cell line growth inhibition [Asc]
Settings: for IC50: curve of first compound; for viability, T/C: stronger effect = lower value
Description: Multicellular complex tumor spheroid response to apoptosis pathway targeting inhibitors Alrizomadlin, Pelcitoclax, and Dasminapant in combination with a variety of drugs and investigational agents in selected tumor cell lines
The MDM2 inhibitor alrizomadlin, the Bcl-2/Bcl-xL inhibitor pelcitoclax, and the IAPs inhibitor dasminapant were evaluated both individually and in combination with standard of care and investigational anticancer small molecules within a complex spheroid model of solid tumors. . Complex spheroids include a stromal component modeled by human endothelial cells (HUVEC) and fibroblasts modeled by human mesenchymal stem cells (MSCs). The concentration ranges selected for each drug and investigational agent were based upon clinically achievable concentrations if the clinical Cmax of the agent was known.
Compounds. The drugs and investigational agents: alrizomadlin (APG-115; NSC831270), pelcitoclax (APG-1252; NSC835773), dasminapant (APG-1387;NSC834197), TAK-243 (NSC785004), copanlisib (NSC809693), olaparib (NSC753686), talazoparib (NSC767125), cobimetinib (NSC 768068), eltanexor (KPT-8602, NSC 794443), abemaciclib (NSC 768073), sotorasib (NSC818433), adagrasib (NSC 831453), MRTX-1133 (NSC 836407), Iadademestat (ORY1001, NSC 806812), and RMC-4630 (NSC839698), were obtained from the NCI Developmental Therapeutics Program Chemical Repository. The FDA-approved anticancer drug set is available from the Developmental Therapeutics Program at https://dtp.cancer.gov/organization/dscb/obtaining/available plates.htm. […] The stock solutions were prepared in dimethyl sulfoxide (DMSO, Sigma-Aldrich, St. Louis, MO, cat. D2650) at 800-fold the tested concentration and stored at -70 degrees C prior to their use. All drugs and investigational agents were tested over a range starting from a high concentration at or near the clinical Cmax and decreasing in half-log increments. If the clinical Cmax for an agent had not been determined, the highest concentration tested was 10 microM.
The patient-derived cancer (PDC) cell lines include five colon adenocarcinomas: 186277-243-T-J2-PDC, 616215-338-R-J1-PDC, 439559-082-T-J2-PDC, 463943-066-T-J2-PDC, and 519858-162-T-J1-PDC; three pancreatic carcinomas: 323965-272-R-J2-PDC, 521955-158-R6-J3-PDC, and 521955-158-R2-J5-PDC; two uterine sarcomas: 327498-152-R-J2-PDC and 993429-296-R-J1-PDC; two rhabdomyosarcomas: 755483-174-R-J1-PDC and 772245-204-R-J1-PDC; two soft tissue sarcomas: 126254-015-R-J1-PDC and 494315-158-R-J1-PDC; two malignant fibrous histiocytomas: 317291-083-R-J1-PDC and 596521-263-R-J1-PDC; two breast carcinomas: 171881-019-R-J1-PDC and 885512-296-R-J2-PDC; and one ovarian carcinoma: 6556581-035-R-J-PDC were obtained from the NCI PDMR, (https://pdmr.cancer.gov). The established cell lines HSSY-2 synovial sarcoma (RRID:CVCL 8719), SYO-1 synovial sarcoma (RRID:CVCL_7146), MPNST malignant peripheral neural sheath tumor were obtained from the Sloan Kettering Institute. The following established cell lines were purchased from the American Type Culture Collection (ATCC, Manassas, VA), Sor the received from the NCI repository:, PANC-1 pancreatic carcinoma (CRL-1469, RRID:CVCL_0480), OVCAR-5 ovarian carcinoma (RRID:CVCL_1628), OVCAR-8 ovarian carcinoma (RRID:CVCL_1629), , MCF-7 breast carcinoma (CRL-12584, RRID:CVCL_0031), MDA-MB-231 breast carcinoma (CRL-12532, RRID:CVCL_0062), NCI-H1876 small cell lung carcinoma (CRL-5902, RRID:CVCL_1503), NCI-H510A small cell lung carcinoma (HTB-184, RRID:CVCL_1565), NCI-H1417 (CRL-5869, RRID:CVCL_1469), and NCI-H196 small cell lung carcinoma (CRL-5823, RRID:CVCL_1509). Dr. Peter Houghton (Greehey Children's Cancer Research Institute, University of Texas Health Science Center, San Antonio, TX) provided Rh-18 rhabdomyosarcoma (RRID:CVCL_1659). Pooled donor human umbilical vein endothelial cells (HUVEC, Lonza, cat. CC-2519) and human mesenchymal stem cells (hMSC, Lonza, cat. PT-2501) were purchased from Lonza (Walkersville, MD).
Cell Culture. […]

[1] = second compound 0.03 µM, first compound 0.00316 µM
[2] = second compound 0.03 µM, first compound 0.01 µM
[3] = second compound 0.03 µM, first compound 0.0316 µM
[4] = second compound 0.03 µM, first compound 0.1 µM
[5] = second compound 0.03 µM, first compound 0.316 µM
[6] = second compound 0.03 µM, first compound 1 µM
[7] = second compound 0.0949 µM, first compound 0.00316 µM
[8] = second compound 0.0949 µM, first compound 0.01 µM
[9] = second compound 0.0949 µM, first compound 0.0316 µM
[10] = second compound 0.0949 µM, first compound 0.1 µM
[11] = second compound 0.0949 µM, first compound 0.316 µM
[12] = second compound 0.0949 µM, first compound 1 µM
[13] = second compound 0.3 µM, first compound 0.00316 µM
[14] = second compound 0.3 µM, first compound 0.01 µM
[15] = second compound 0.3 µM, first compound 0.0316 µM
[16] = second compound 0.3 µM, first compound 0.1 µM
[17] = second compound 0.3 µM, first compound 0.316 µM
[18] = second compound 0.3 µM, first compound 1 µM
[19] = second compound 0.949 µM, first compound 0.00316 µM
[20] = second compound 0.949 µM, first compound 0.01 µM
[21] = second compound 0.949 µM, first compound 0.0316 µM
[22] = second compound 0.949 µM, first compound 0.1 µM
[23] = second compound 0.949 µM, first compound 0.316 µM
[24] = second compound 0.949 µM, first compound 1 µM
[25] = second compound 3 µM, first compound 0.00316 µM
[26] = second compound 3 µM, first compound 0.01 µM
[27] = second compound 3 µM, first compound 0.0316 µM
[28] = second compound 3 µM, first compound 0.1 µM
[29] = second compound 3 µM, first compound 0.316 µM
[30] = second compound 3 µM, first compound 1 µM
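Further: spheroids exposed to compound for 7 days after 3 days of growth.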
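Wherever viability, T/C is given: 100% = DMSO vehicle control wells.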

| SMILES | IC50 (second compound 0.03 µM) [nM] | IC50 (second compound 0.0949 µM) [nM] | IC50 (second compound 0.3 µM) [nM] | IC50 (second compound 0.949 µM) [nM] | IC50 (second compound 3 µM) [nM] | viability, T/C [1] [%] | viability, T/C [2] [%] | viability, T/C [3] [%] | viability, T/C [4] [%] | viability, T/C [5] [%] | viability, T/C [6] [%] | viability, T/C [7] [%] | viability, T/C [8] [%] | viability, T/C [9] [%] | viability, T/C [10] [%] | viability, T/C [11] [%] | viability, T/C [12] [%] | viability, T/C [13] [%] | viability, T/C [14] [%] | viability, T/C [15] [%] | other results |
| --- | --- | --- | --- | --- | --- | --- | --- | --- | --- | --- | --- | --- | --- | --- | --- | --- | --- | --- | --- | --- | --- |
| CCN1CCN(Cc2ccc(Nc3ncc(F)c(-c4cc(F)c5nc(C)n(C(C)C)c5c4)n3)nc2)CC1 + CCN1C(C(=O)NC23CCC(C(=O)O)(CC2)CC3)C(c2cccc(Cl)c2F)C2(C(=O)Nc3cc(Cl)ccc32)C12CCCCC2 | > 1000 | 28.8 | < 3.16 | < 3.16 | < 3.16 | 86.8 | 84.2 | 77.1 | 52.4 | 48.4 | 53.3 | 68 | 68.4 | 48.3 | 31.7 | 39.8 | 39 | 34.3 | 26.6 | 18.2 | viability, T/C [16]: 15.4%; viability, T/C [17]: 17.9%; viability, T/C [18]: 21.3%; viability, T/C [19]: 9.27%; viability, T/C [20]: 8.09%; viability, T/C [21]: 6.59%; viability, T/C [22]: 7.13%; viability, T/C [23]: 8.2%; viability, T/C [24]: 11.3%; viability, T/C [25]: 3.59%; viability, T/C [26]: 3.67%; viability, T/C [27]: 2.51%; viability, T/C [28]: 3.55%; viability, T/C [29]: 4.83%; viability, T/C [30]: 8.39% |
| O=C(c1ccc(F)c(F)c1Nc1ccc(I)cc1F)N1CC(O)([C@@H]2CCCCN2)C1 + CCN1C(C(=O)NC23CCC(C(=O)O)(CC2)CC3)C(c2cccc(Cl)c2F)C2(C(=O)Nc3cc(Cl)ccc32)C12CCCCC2 | 227 | 47.8 | < 3.16 | < 3.16 | < 3.16 | 98.2 | 85 | 70.5 | 64.5 | 50.3 | 16 | 67 | 61.4 | 55.3 | 41.3 | 28.4 | 8.51 | 37.2 | 29.1 | 17.3 | viability, T/C [16]: 15.7%; viability, T/C [17]: 11.1%; viability, T/C [18]: 3.71%; viability, T/C [19]: 8.99%; viability, T/C [20]: 6.26%; viability, T/C [21]: 4.91%; viability, T/C [22]: 4.3%; viability, T/C [23]: 2.73%; viability, T/C [24]: 1.43%; viability, T/C [25]: 3.41%; viability, T/C [26]: 1.87%; viability, T/C [27]: 2.1%; viability, T/C [28]: 1.08%; viability, T/C [29]: 1.35%; viability, T/C [30]: 0.86% |

From PubChem BioAssay AID1963424 (Molecular Pharmacology Branch, DTP, NCI, 2024)
